According to ChEMBL document CHEMBL1201862, “PubChem BioAssay data set” (2004):
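Compound exposure: 48 hours, 5 concentrations, 96-well plates. GI50 = concentration required for 50% inhibition of growth.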 Active and inactive are the calls of the source. Rule as the data show it: active = GI50 up to about 1.1 µM and inactive = higher.

Key:
Assay in all cases: DTP human tumour cell line panel, 48 h
LXFL 529 = system: LXFL 529
DMS-114 = system: DMS-114
DLD-1 = system: DLD-1
DMS-273 = system: DMS-273
M19-MEL = system: M19-MEL
SNB-78 = system: SNB-78
HOP-18 = system: HOP-18
Hs-578T = system: Hs-578T
RXF 631 = system: RXF 631

| Structure (SMILES) | GI50 (LXFL 529) | GI50 (DLD-1) | GI50 (M19-MEL) | GI50 (Hs-578T) | further results |
| --- | --- | --- | --- | --- | --- |
| CCN1CCC(O)(c2ccc(Cl)c(Cl)c2)C(C(=O)c2ccc(Cl)c(Cl)c2)C1 (centres undefined) | 16.2 µM (inactive) | 17.8 µM (inactive) | – | – | GI50 (DMS-114): 17.1 µM (inactive); GI50 (DMS-273): 18.1 µM (inactive) |
| CN(C)P(=O)(/C(N)=N/Nc1ccc([N+](=O)[O-])cc1)N(C)C | > 100 µM (inactive) | > 100 µM (inactive) | > 100 µM (inactive) | – | GI50 (DMS-114): 61.7 µM (inactive); GI50 (DMS-273): > 100 µM (inactive); GI50 (SNB-78): > 100 µM (inactive) |
| O=C(c1ccc(Cl)cc1)N(C(=S)N1CCN(c2ccccn2)CC1)c1ccccc1 | 55.2 µM (inactive) | > 100 µM (inactive) | > 100 µM (inactive) | – | GI50 (DMS-114): 42.5 µM (inactive); GI50 (DMS-273): 78.3 µM (inactive); GI50 (SNB-78): > 100 µM (inactive); GI50 (HOP-18): > 100 µM (inactive) |
| CCOC(=O)C(NC(=O)Nc1ccc(Cl)c(Cl)c1)C(F)(F)F (centres undefined) | – | – | – | 40.5 µM (inactive) | – |
| O=C1C=CC2(C=C1)CCC(=O)O2 | – | – | – | 10.6 µM (inactive) | – |
| COCc1nc2c(OC)c(-c3nc4ccc(N5CCN(C)CC5)cc4[nH]3)cc(OC)c2[nH]1 | – | – | – | 69.8 µM (inactive) | – |
| CN(C)c1ccc(-c2ccc(N(C)C)c3n[se]nc23)c2n[se]nc12 | – | – | – | 88.1 µM (inactive) | – |
| Cc1ccc(S(=O)(=O)Nn2c(S)c(C#N)c(-c3ccc([N+](=O)[O-])cc3)c(C#N)c2=O)cc1 | – | – | – | 32.4 µM (inactive) | – |
| CC12CCC(=O)N1c1cccnc1N2 (centres undefined) | > 100 µM (inactive) | > 100 µM (inactive) | > 100 µM (inactive) | – | GI50 (DMS-114): > 100 µM (inactive); GI50 (SNB-78): > 100 µM (inactive) |
| COc1ccc2nc3c([N+](=O)[O-])ccc4c3c(c2c1)N=CN4CCN(C)C | – | – | – | 6.73 µM (inactive) | – |
| COc1cc(C(=O)C/C(CCC(=O)Nc2ccc(Cl)cc2Cl)=N/Nc2nnc(C)n2N)ccc1O | > 100 µM (inactive) | > 100 µM (inactive) | > 100 µM (inactive) | – | GI50 (DMS-273): > 100 µM (inactive); GI50 (SNB-78): > 100 µM (inactive); GI50 (HOP-18): > 100 µM (inactive) |
| C=CCC(O)c1cc(OC)ccc1OC (centres undefined) | > 100 µM (inactive) | – | > 100 µM (inactive) | – | GI50 (RXF 631): > 100 µM (inactive); GI50 (DMS-114): > 100 µM (inactive); GI50 (DMS-273): > 100 µM (inactive) |
| C=CCOc1cc(NC(=S)c2ccoc2C)ccc1OC | – | – | – | > 100 µM (inactive) | – |
| CCN(CC)C(=O)Cn1c(C)cc2ccccc21 | – | – | – | > 100 µM (inactive) | – |
| O/N=C(/CC(O)(C(F)(F)F)C(F)(F)F)c1ccccc1 | – | – | – | > 10 µM (inactive) | – |
| CCOC(=O)c1sc2c(c1OC(=O)c1ccccc1)c(=O)n(-c1ccccc1)c(=S)n2-c1ccccc1 | – | – | – | 23.6 µM (inactive) | – |

| Structure (SMILES) | GI50 (LXFL 529) | GI50 (DLD-1) | GI50 (M19-MEL) | GI50 (Hs-578T) | further results |
| --- | --- | --- | --- | --- | --- |
| COc1ccc(/C(C)=N/NC(=O)c2ccncc2)c(OC)c1 | – | – | – | > 10 µM (inactive) | – |
| O=C1C=Cc2c(Br)sc(Br)c21 | – | – | – | 29.2 µM (inactive) | – |
| COC1C(OC(=O)c2ccc(C)[nH]2)C(O)C(Oc2ccc3c(O)c(NC(=O)c4c[nH]c(C(=O)Nc5c(O)c6ccc(OC7OC(C)(C)C(OC)C(OC(=O)c8ccc(C)[nH]8)C7O)c(C)c6oc5=O)c4C)c(=O)oc3c2C)OC1(C)C (centres undefined) | 1.07 µM (active) | 1.86 µM (inactive) | 1.64 µM (inactive) | – | GI50 (DMS-114): 2.02 µM (inactive); GI50 (DMS-273): 2.86 µM (inactive); GI50 (SNB-78): 1.56 µM (inactive); GI50 (HOP-18): 0.596 µM (active) |
| CN1CCN(Cn2nc(-c3ccccc3)n(/N=C/c3ccc(-c4ccc(Cl)cc4Cl)o3)c2=S)CC1 | – | – | – | 7.91 µM (inactive) | – |
| O=C1NC(=S)NC(=O)C1=Cc1cccc2cc3ccccc3cc12 | – | – | – | 2.97 µM (inactive) | – |
| O=C1c2ccccc2C(=O)N1n1c(Cc2ccc(Cl)cc2)n[nH]c1=O | – | – | – | > 100 µM (inactive) | – |
| OCCNc1ncnc2c1ncn2C1OC(CO)C(O)C1O (centres undefined) | – | – | – | 48 µM (inactive) | – |
| Cc1cccc(NS(=O)(=O)c2ccc3c(c2)OCCOCCOCCOCCO3)c1 | – | – | – | > 100 µM (inactive) | – |
| O=c1[nH][nH]c(=O)[nH]1 | – | > 100 µM (inactive) | > 100 µM (inactive) | – | GI50 (DMS-273): > 100 µM (inactive); GI50 (SNB-78): > 100 µM (inactive) |
| Cc1cc(S(=O)(=O)Nc2n[nH]c(Nc3ccccc3)n2)c(S)cc1Cl | – | – | – | > 10 µM (inactive) | – |
| Nn1c(S)nnc1N/N=C1/C(=O)Nc2ccccc21 | 39.5 µM (inactive) | 48.9 µM (inactive) | > 100 µM (inactive) | – | GI50 (DMS-114): > 100 µM (inactive); GI50 (SNB-78): > 100 µM (inactive); GI50 (HOP-18): 70.5 µM (inactive) |
| C=CC/N=C1\NC(=O)C(CC(=O)Nc2ccc(C)cc2)S1 (centres undefined) | > 100 µM (inactive) | > 100 µM (inactive) | > 100 µM (inactive) | – | GI50 (RXF 631): > 100 µM (inactive); GI50 (DMS-114): > 100 µM (inactive); GI50 (DMS-273): > 100 µM (inactive); GI50 (HOP-18): > 100 µM (inactive) |
| N#C/C(=C1\OC(=N)C(c2ccc(Cl)cc2Cl)C1=O)c1ccc(Cl)cc1Cl (centres undefined) | > 100 µM (inactive) | > 100 µM (inactive) | > 100 µM (inactive) | – | GI50 (RXF 631): > 100 µM (inactive); GI50 (DMS-114): > 100 µM (inactive); GI50 (DMS-273): > 100 µM (inactive); GI50 (SNB-78): > 100 µM (inactive) |
| CSc1nc(Cl)c2c(n1)Sc1nc3ccccc3n1N=C2 | – | – | – | 26.7 µM (inactive) | – |
| c1ccc2cc(CN3CCC(C4CCN(Cc5ccc6ccccc6c5)CC4)CC3)ccc2c1 | – | – | – | 2.49 µM (inactive) | – |
